These results are taken from patent publication US12311056B2, “Composition and method for treatment of neuropsychiatric disorders” (Duke University, priority 2015, dated 2025).

Data set [1] has as its system 5-HT3 receptors. The settings on record: cited from earlier work.
The target of data set [2] is histamine H1 receptors (Homo sapiens, UniProt P35367). The settings on record: cited from earlier work.
Data set [3] concerns adrenergic α2 receptors. The settings on record: cited from earlier work.
For data set [4], the target named is T1, 5-HT2C receptors (Homo sapiens, UniProt P28335).
T1 sequence (P28335 33-458): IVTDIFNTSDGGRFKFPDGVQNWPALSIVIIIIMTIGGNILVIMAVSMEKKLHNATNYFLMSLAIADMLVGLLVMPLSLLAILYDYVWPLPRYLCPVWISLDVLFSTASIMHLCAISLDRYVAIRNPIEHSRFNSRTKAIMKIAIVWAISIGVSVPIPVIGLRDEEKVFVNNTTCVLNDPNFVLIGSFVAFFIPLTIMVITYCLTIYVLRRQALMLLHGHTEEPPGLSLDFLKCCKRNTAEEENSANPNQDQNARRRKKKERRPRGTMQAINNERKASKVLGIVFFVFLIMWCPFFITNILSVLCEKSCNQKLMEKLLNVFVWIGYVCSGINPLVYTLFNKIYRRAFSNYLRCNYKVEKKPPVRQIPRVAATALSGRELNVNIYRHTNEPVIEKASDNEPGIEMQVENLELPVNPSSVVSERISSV
The settings on record: cited from earlier work.

Data set [5] has as its target 5-HT2A receptors (Homo sapiens, UniProt P28223). The settings on record: cited from earlier work.
For data set [6], the target named is T2, 5-HT1A receptors (Homo sapiens, UniProt P08908).
T2 sequence (P08908 1-422): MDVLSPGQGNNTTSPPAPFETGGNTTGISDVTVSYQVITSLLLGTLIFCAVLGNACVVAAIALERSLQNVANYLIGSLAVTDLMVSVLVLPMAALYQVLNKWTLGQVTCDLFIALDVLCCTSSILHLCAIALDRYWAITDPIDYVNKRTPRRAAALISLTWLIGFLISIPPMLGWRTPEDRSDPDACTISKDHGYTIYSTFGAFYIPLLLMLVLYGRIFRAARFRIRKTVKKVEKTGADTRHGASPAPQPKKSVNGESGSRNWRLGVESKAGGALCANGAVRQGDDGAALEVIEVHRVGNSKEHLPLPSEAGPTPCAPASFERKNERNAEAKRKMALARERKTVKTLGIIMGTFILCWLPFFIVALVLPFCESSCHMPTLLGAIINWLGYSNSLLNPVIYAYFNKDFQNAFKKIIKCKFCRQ
The settings on record: cited from earlier work.

The subject of data set [7] is rat animal models of LID. In words: Levodopa-induced abnormal involuntary movement (LIAIM) in 6-OHDA-lesioned rat models of LID. It counts as in vivo. The settings on record: 2 weeks s.c. treatment; challenge with 25 mg/kg levodopa two days after last treatment; compared to L_SS. As to the method: First, the dopaminergic neurotoxin 6-hydroxydopamine (6-OHDA) was injected into the right medial forebrain bundle of rats to induce unilateral lesions of the nigrostriatal DA pathway. Starting 3 weeks after 6-OHDA lesion, animals were treated twice daily with levodopa methyl ester (25 mg/kg, i.p., bid immediately preceded by 6.5 mg/kg, i.p. benserazide) for 3 weeks to establish LIAIM. Three hour LIAIM scores were quantified twice a week during the levodopa treatment using standard LIAIM rating scales.
Following LIAIM establishment, animals with combined limb, axial and orolingual LIAIM severity scores>25 were treated with one of the 3 treatment regimens for 2 weeks: (1) pergolide (0.1 mg/kg) followed 3.5 hours later by the 5-HT2A/2C antagonist ketanserin (1 mg/kg) [L_PK group]; (2) pergolide+saline 3.5 hours later [L_PS Group]; and (3) DMSO (1% in saline)+saline 3.5 hours later [L_SS]. All injections were given subcutaneously.
Two days after the last L_PK, L_PS or L-SS treatment, all animals were challenged with 25 mg/kg levodopa and their LIAIM scores were again quantified.

Data set [8] can be described thus: PK analysis of [MPh-IR+Ond-PR2] in the Phase 2A study (24-hour blood PK samples, Day 1 and Day 14). An excerpt: Ond-PR2 is a bead formulation prepared from ondansetron as the active pharmaceutical ingredient (API). MPh-IR is an immediate-release generic formulation of methylphenidate. [MPh-IR+Ond-PR2] is a single encapsulated dosage form consisting of MPh-IR and Ond-PR2 as Components 1 and 2, respectively. Following in vitro dissolution testing and PK and safety determinations in normal healthy volunteers (Phase 1 trial), we conducted a proof-of-concept, randomized, double-blind, placebo-controlled Phase 2A safety/efficacy clinical trial. A total of 48 patients residing in a residential program and meeting the DSM-4 criteria for primary psychostimulant abuse were screened, and 30 qualifying subjects were randomized into either [MPh-IR+Ond-PR2] or placebo treatment group.
Single capsules containing either [MPh-IR+Ond-PR2] or dextrose (placebo) were administered once a day for 14 days. Subjects also underwent single fMRI-based assessments 1-7 days before the first study dosing (pre-treatment) and again between Day 3 and 7 days after the last dosing (i.e., post-treatment assessment was performed after complete drug washout). Outcome measures for group comparisons were behavioral rating scales and blood-oxygenation-level-dependent (BOLD) functional imaging results under well-established resting-state, cue-reactivity and Go/noGO task paradigms.
On Day 1 and Day 14, 24-four-hour blood PK samples were collected following single oral administrations of a [MPh-IR+Ond-PR2] capsule to: (1) estimate the PK parameters of the two Components (i.e., MPh-IR and Ond-PR2] by quantifying serum methylphenidate and ondansetron concentrations; and (2) determine whether or not any of these parameters change after single daily administrations for 14 days. Descriptive statistics for blood methylphenidate (MPh-IR) and ondansetron (Ond-PR2) concentrations at each time point were summarized as the mean, standard deviation and coefficient of variation. Estimation and statistical analyses of PK parameters were performed with SAS 9.3, and BABE Solution.

For data set [9], the target named is CYP2D6 (Homo sapiens, UniProt P10635). The settings on record: cited from earlier work.
Sequence of CYP2D6 (P10635 whole entry): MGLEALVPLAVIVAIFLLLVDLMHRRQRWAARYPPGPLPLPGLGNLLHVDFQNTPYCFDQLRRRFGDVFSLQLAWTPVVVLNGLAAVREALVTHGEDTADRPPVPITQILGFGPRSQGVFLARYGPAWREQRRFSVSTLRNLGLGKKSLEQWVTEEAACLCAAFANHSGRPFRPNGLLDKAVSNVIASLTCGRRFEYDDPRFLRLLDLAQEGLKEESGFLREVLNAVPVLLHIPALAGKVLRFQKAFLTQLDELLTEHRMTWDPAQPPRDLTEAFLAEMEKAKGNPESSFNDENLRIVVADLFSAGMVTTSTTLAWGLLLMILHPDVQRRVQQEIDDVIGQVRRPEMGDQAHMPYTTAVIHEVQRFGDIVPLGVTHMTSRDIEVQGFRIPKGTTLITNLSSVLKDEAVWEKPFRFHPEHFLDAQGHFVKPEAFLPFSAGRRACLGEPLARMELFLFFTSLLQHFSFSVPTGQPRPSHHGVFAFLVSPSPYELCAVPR
The conditions of data set [10]: cited from earlier work.
[11] abbreviates: vs R(−) enantiomer of mirtazapine.

The structures appear in SMILES notation.

Sequence of 5-HT2A receptors (P28223 whole entry): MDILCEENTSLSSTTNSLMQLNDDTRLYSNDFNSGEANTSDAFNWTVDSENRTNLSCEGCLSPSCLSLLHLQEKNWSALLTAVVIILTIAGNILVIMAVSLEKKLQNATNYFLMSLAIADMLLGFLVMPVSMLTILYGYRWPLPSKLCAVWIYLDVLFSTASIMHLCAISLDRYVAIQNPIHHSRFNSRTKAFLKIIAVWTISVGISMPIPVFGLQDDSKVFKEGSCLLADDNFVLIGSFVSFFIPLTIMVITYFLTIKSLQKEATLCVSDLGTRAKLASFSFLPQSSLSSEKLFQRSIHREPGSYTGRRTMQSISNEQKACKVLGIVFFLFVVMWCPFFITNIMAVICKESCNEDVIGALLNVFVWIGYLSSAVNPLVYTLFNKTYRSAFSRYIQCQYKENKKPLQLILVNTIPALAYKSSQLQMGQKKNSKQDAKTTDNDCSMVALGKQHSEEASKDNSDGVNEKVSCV
Sequence of histamine H1 receptors (P35367 whole entry): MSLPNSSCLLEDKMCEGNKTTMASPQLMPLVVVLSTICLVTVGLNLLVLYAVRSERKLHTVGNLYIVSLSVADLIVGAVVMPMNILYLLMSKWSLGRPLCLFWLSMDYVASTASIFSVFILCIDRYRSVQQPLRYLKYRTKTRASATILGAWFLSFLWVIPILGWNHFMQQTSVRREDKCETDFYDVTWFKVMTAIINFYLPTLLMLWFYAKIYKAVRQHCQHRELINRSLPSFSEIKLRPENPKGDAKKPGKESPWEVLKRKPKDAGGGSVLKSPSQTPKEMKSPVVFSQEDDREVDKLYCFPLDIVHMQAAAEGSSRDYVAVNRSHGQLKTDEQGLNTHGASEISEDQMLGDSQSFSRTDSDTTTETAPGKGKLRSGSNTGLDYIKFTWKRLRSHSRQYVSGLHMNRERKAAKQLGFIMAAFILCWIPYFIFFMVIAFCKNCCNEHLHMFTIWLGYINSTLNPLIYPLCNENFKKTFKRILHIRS

`CN1CCN2c3ncccc3Cc3ccccc3C2C1` (racemic) [Mirtazapine, 1,2,3,4,10,14b-hexahydro-2-methylpyrazino[2,1-a]pyrido[2,3-c]benzazepine]: in data set [1], the “Affinity for 5-HT3 receptors” value was “high affinities”. For the same compound, the “Affinity for histamine H1 receptors” value in data set [2] is “high affinities”. The “Affinity for adrenergic α2 receptors” value in data set [3] is “high affinities”. In [4], the “Affinity to 5-HT2C receptors” value is listed as “high affinities”. Moreover, the “Affinity to 5-HT2A receptors” value in data set [5] was “high affinities”. In addition, the “Affinity to 5-HT1A receptors” value in data set [6] was “minimal affinity”.
Consider `CCCN1C[C@H](CSC)C[C@@H]2c3cccc4[nH]cc(c34)C[C@H]21` [L_P/S, pergolide], for which, in data set [7], the “Total LIAIM scores (ratios between post- and pre-reversal treatment scores)” value is recorded as “No differences”.
With `COC(=O)C(c1ccccc1)C1CCCCN1` (stereo not drawn) [Methylphenidate, methylphenidate], in data set [8] (Day 1, mean), the “Cmin (minimum blood concentration before the next administration)” value came to 0 ng and the “Kel (elimination rate constant)” value came to 0.2 h − 1. Besides, in [8] (Day 14, mean), the “AUC (0-24)” value was found to be 21.5 ng·h, the “Cmin (minimum blood concentration before the next administration)” value is 0 ng, the “Half life(t1/2)” value was 3.1 h and the “Kel (elimination rate constant)” value stood at 0.2 h − 1. Further, in data set [8] (human, in vivo), the AUC(0-t) (as a rule, the area under the concentration-time curve up to a stated or last time point) was determined as 21.5 ng·h/mL; the Cmax (in general, the highest concentration seen after dosing) is 3.4 ng/mL; the half-life (in general, how long it takes for the measured level to halve) was 3.2 h. The AUC(0-inf) in [8] (human, in vivo, AUC (0-inf), Day 1, mean) came to 21.6 ng·h/mL. Also, the AUC(0-inf) in [8] (human, in vivo, AUC (0-inf), Day 14, mean) was determined as 23.4 ng·h/mL. In addition, the Tmax (commonly the time at which the peak concentration occurs) in data set [8] (human, in vivo, Tmax, Day 1, mean) came out at 1.9 h. The Tmax in [8] (human, in vivo, Tmax, Day 14, mean) came out at 1.7 h. Besides, the Cmax in [8] (human, in vivo, po) was 4 ng/mL. For the same compound, the “Change in Cmax, Cmin, Tmax, t½, AUC (0-24), AUC (0-inf.) and Kel between Day 1 and Day 14” value in data set [8] (once-daily [MPh-IR+Ond-PR2] for 14 days) is “No significant changes”.
For `Cc1nccn1CC1CCc2c(c3ccccc3n2C)C1=O` (stereo not drawn) [Ondansetron, ondansetron], in [8] (human, in vivo), the “AUC (0-24)” value stood at 186.4 ng·h; the “AUC(0-inf)” value was 226.4 ng·h; the “Change in Cmax, Cmin, Tmax, t½, AUC (0-24), AUC (0-inf.) and Kel between Day 1 and Day 14” value is on record as “No significant changes”; the Cmax was 12.6 ng/mL. Further, in [8] (human, in vivo), the “Half life(t1/2)” value is reported as 7.2 h, the “Kel (elimination rate constant)” value worked out at 0.1 h − 1 and the Tmax is reported as 5.8 h. Further, in [8] (human, in vivo, AUC (0-24)), the AUC(0-t) was 136 ng·h/mL. In addition, the AUC(0-inf) in data set [8] (human, in vivo, AUC (0-inf)) is 179 ng·h/mL. Moreover, in data set [8] (human, in vivo, Half life(t1/2)), the half-life was 6.9 h. For the same compound, the Tmax in data set [8] (human, in vivo, Tmax) was 6.3 h. Moreover, the concentration in data set [8] (human, in vivo, po) peaked (Cmax) at 11.2 ng/mL.
Consider `CN1CCN2c3ncccc3Cc3ccccc3[C@H]2C1` [esmirtazapine], for which the Metabolising enzyme result in data set [9] is given as “predominantly metabolized by CYP2D6”. For the same compound, in [10] (CYP2D6 phenotype), the “Clearance in poor metabolizers compared to extensive metabolizers” value is reported as “twice as low”. Also, in [10] (enantioselective transport process in the gut wall), the “Absorption in comparison with the R(−) enantiomer” value is listed as “may be absorbed faster (but not more extensively)”. In data set [3] (setting [11]), the “Affinity for α2 adrenergic receptors in comparison with the R(−) enantiomer” value is on record as “higher affinity”. Besides, the “Affinity for 5-HT2C receptors in comparison with the R(−) enantiomer” value in [4] (setting [11]) was “higher affinity”.
